Results from US20170143006A1, “Composition and Use Thereof” (DUPONT NUTRITION BIOSCIENCES APS, priority 2014, published 2017).
Where a name gives a salt, the structure may show the parent alone. Marks after values point to notes of the source that are not given here.

Columns and labels:
ruminal fluid [1] = assay: In vitro fermentation in buffered goat ruminal fluid, 24 h: determination of volatile fatty acids (VFA); assay type: cell-based, Murciano-Granadina goats; details: after 24 h of incubation
Description: Determination of VFA can be based on the method previously described by Jouany, J. P., Volatile fatty acid and alcohol determination in digestive contents, silage juices, bacterial cultures and anaerobic fermentor contents; Sciences des Aliments, 2: 131-144, 1982.
For instance, samples are filtered through 0.45 μm cellulose syringe filters. One hundred microliters of an internal standard solution (0.4 g of 4-metil-valeric acid diluted in 100 ml of deionised water) and 0.1 ml of a preservative (a mix of 5% H3PO4 and 1% CIHg in deionised water) are added to 0.8 ml of filtrate. One μL from each sample is injected in a gas chromatograph (Fisons 8000 series, Milan, Italy) equipped with a split/splitless injector and FID detector. The separation of SOFA (short chain fatty acids) is made in a DB-FFAP capillary column (30 m×0.25 mm×0.25 μm of film thickness) J&W Scientific (USA). The carrier gas is N2 at a constant pressure of 120 KPa. Both detector and injector temperatures are set at 245° C. The initial oven temperature is set at 115° C. held for 5 min and increased to 230 at 8.5° C./min and finally maintained at that temperature for 10 min. SOFA are identified by comparing their retention times with a standard (46975-U de Supelco®, PA, USA).
(§1) Twelve mature Murciano-Granadina goats of similar body weight (46.97±2.5 kg BW) during late lactation were randomly split into 4 groups. Each group was fed with the same total mixed ration for 10 days. Each group included 4 g/kg of one of four types of betaine additive: • 1—Non Coated Betaine BS1 (Betafin S1, natural betaine, DuPont) • 2—Coated Betaine B52 (see preparative example 3) • 3—Coated Betaine B60 (see preparative example 4) • 4—Uncoated Betaine HCl
(§2) After an adaptation period to the diets including betaine of 10 days, ruminal fluid was obtained by means of an oesophagus probe from all goats. Ruminal fluid from goats (3 per treatment) was obtained just before feeding, transported to the laboratory and immediately strained/filtered across/through four layers of cheesecloth and mixed into an Erlenmeyer flask.
(§3) The in vitro fermentation was carried out by the following incubation process; the squeezed rumen fluid (after filtration) was mixed with Goering and Van Soest (1970) buffer solution in a 1:4 (v/v) ratio at 39° C. under continuous flow of CO2.
(§4) Samples of 1 g of total ration (0.4 g concentrate and 0.6 g alfalfa hay) plus betaine (0.015 g of each type) were accurately weighed and mixed into 125 mL bottles (ANKOM RF equipment). 50 mL of the buffered rumen fluid was added to each bottle under CO2 flow.
(§5) Bottles were sealed and incubated at 39° C. for 24 h. Gas measurements were recorded every hour, while pH was measured at the start and right after 24 h; crude fiber, digestibility, CH4 and volatile fatty acid (VFA) concentrations were determined after 24 h of incubation.

ruminal fluid [2] = assay: In vitro fermentation in buffered goat ruminal fluid, 24 h: ruminal parameters (DM, pH, residue, digestibility, N-NH3); assay type: cell-based, Murciano-Granadina goats; details: 24 h incubation
Excerpt: as §1, §2
The in vitro fermentation was carried out by the following incubation process; the squeezed rumen fluid (after filtration) was mixed with Goering and Van Soest (1970) buffer solution in a 1:4 (v/v) ratio at 39° C. under continuous flow of CO2. […]
Bottles were sealed and incubated at 39° C. for 24 h. Gas measurements were recorded every hour, while pH was measured at the start and right after 24 h; crude fiber, digestibility, CH4 and volatile fatty acid (VFA) concentrations were determined after 24 h of incubation. […]

ruminal fluid [3] = assay: In vitro fermentation in buffered goat ruminal fluid, 24 h: gas production (methane content CH4); assay type: cell-based, Murciano-Granadina goats; details: for Gas production / mL CH4: after 24 hrs of incubation; for CH4/S / mL CH4/S / mL gas/S: per S (substrate in g DM), 24 hrs
Description: The gas content can be analysed in a Focus Gas Chromatograph (Thermo, Milan, Italy) equipped with a split/splitless injector and a flame ionization detector. The separation can be performed in a GS-Q capillary column (J&W Scientific, USA) (30 m×0.32 mm i.d.). The carrier gas may be Helium at a constant flow of 1 ml/min. The samples may be injected with a split ratio of 1/100. The initial oven temperature can be set at 50° C. held for 1 min and increased to 150 at 50° C./min and finally maintained at that temperature for 2 min. Both detector and injector temperatures can be set at 200° C. An external standard (41.21% CO2 and 58.79% CH4) may be employed for quantification of methane content in samples.
as §1, §2, §3, §4, §5

[4] = pure form, white crystalline compound; cited from earlier work

SMILES	Acetic acid (ruminal fluid [1])	Butyric acid (ruminal fluid [1])	Isobutyric acid (ruminal fluid [1])	Isovaleric acid (ruminal fluid [1])	N-Caproic acid (ruminal fluid [1])	N-Valeric acid (ruminal fluid [1])	Propionic acid (ruminal fluid [1])	Total VFA (ruminal fluid [1]) [mmol/L]	N—NH3, mg/L (ammonia nitrogen) (ruminal fluid [2]) [mg/L]	Gas production (ruminal fluid [3]) [mL]	mL CH4 (ruminal fluid [3])	CH4/S (ruminal fluid [3]) [J]	mL CH4/S (ruminal fluid [3])	mL gas/S (ruminal fluid [3]) [mL]	solubility in water and lower alcohols [4]
C[N+](C)(C)CC(=O)[O-] [BS1, betaine]	63.92	15.26^a	0.51	0.66	0.18	1.55	17.92^b	43.46	45.04	203.41	12.17^a mL	498.54	12.65^a mL	210.33	
C[N+](C)(C)CC(=O)O [BHCl, Betaine HCl, reference compound]	63.90	14.63^a	0.61	0.95	0.19	1.64	18.07^b	47.13	51.13	210.67	10.68^a mL	437.48	11.10^a mL	218.70	
C[N+](C)(C)CC(=O)[O-] [betaine, trimethylglycine]															readily soluble
